From patent publication US20250353819A1, “ARYL HYDANTOIN COMPOUNDS AND METHODS OF USE” (priority 2022, published 2025)
Values joined by “and” are separate entries in the source; they are usually repeats but may differ in a detail not shown here. Identical values can stand only once. Like-named read-outs stand apart in the source and are kept apart here.

Tests used:
[1] = LogD7.4 (shake flask); conditions: pH 7.4
[2] = In vitro metabolic stability, human liver microsomes; type: in vitro ADME; conditions: human liver microsomes; read-out: h CLint
Procedure: In Vitro Metabolic Stability. As described by Charman et al. (2020), metabolic stability assays were performed by incubating test compounds in liver microsomes at 37° C. and 0.4 mg/mL protein concentration. The metabolic reaction was initiated by the addition of an NADPH-regenerating system and quenched at various time points over a 60 min incubation period by the addition of acetonitrile containing diazepam as internal standard. Control samples (containing no NADPH) were included (and quenched at 2, 30 and 60 min) to monitor for potential degradation in the absence of cofactor.

[3] = system: LAPC4 cells; test: Androgen-dependent cell-based assay (DHT, LAPC4); conditions: Homo sapiens; DHT-induced, androgen-dependent LAPC4 prostate cancer cell line; read-out: LAPC4 IC50
Procedure: Androgen-Dependent Cell-based Assay. As described by Jones and Diamond (2008), LAPC4 cells were cultured in phenol red free RPMI 1640 media supplemented with antibiotics and 10% FBS. […] […] Mean-effect plots (log[compound] vs. log[fractional effect]) were generated to determine the IC50 values for each test compound or combinations of test compounds at constant ratios.

[4] = molecular target: CYP 2D6 (Homo sapiens (Human), UniProt P10635); test: CYP inhibition in human liver microsomes, 2D6
[5] = molecular target: CYP 2C19 (Homo sapiens (Human), UniProt P33261); test: CYP inhibition in human liver microsomes, 2C19; type: in vitro ADME
[6] = Stability in dog cryopreserved hepatocytes; type: in vitro ADME; conditions: Dog cryopreserved hepatocytes
[7] = Stability in human cryopreserved hepatocytes; type: in vitro ADME
[8] = molecular target: CYP 1A2 (Homo sapiens (Human), UniProt P05177); test: CYP inhibition in human liver microsomes, 1A2; type: in vitro ADME
[9] = Partition coefficient (Log D) by gradient HPLC; type: physicochemical; conditions: pH 7.4, chromatographic estimate; read-out: gLogD7.4
Description: Partition Coefficient. Partition coefficient values (Log D) of the test compounds were estimated by correlation of their chromatographic retention properties against the characteristics of a series of standard compounds with known partition coefficient values using gradient HPLC (modification of a method reported by Lombardo et al., 2001).

[10] = Stability in mouse cryopreserved hepatocytes; type: in vitro ADME
[11] = Pharmacokinetics in male Sprague Dawley rats; type: in vivo, rat
Procedure: IV and oral formulations were prepared using the same method. On the day of dosing the solid compound was dissolved in DMSO prior to addition of a saline solution (0.9% w/v). The samples were then mixed using vortexing producing colourless solutions. The IV formulation was filtered through a 0.22 μm syringe filter prior to dosing and the oral formulation was dosed without filtration.
Samples of arterial blood were collected up to 168 h post-dose. Urine samples were not collected as animals were housed in bedded cages. Arterial blood was collected directly into borosilicate vials (at 4° C.) containing heparin as anticoagulant. Once collected, blood samples were centrifuged, supernatant plasma was removed and stored frozen (−80° C.) until analysis by LC-MS. A summary of the bioanalytical method and assay validation details is included in Tables 14 and 15.
Plasma concentration versus time data were analysed using non-compartmental methods (PKSolver Version 2.0). Standard calculations for each pharmacokinetic parameter are listed below.

CYP 2C19, sequence (P33261 whole entry): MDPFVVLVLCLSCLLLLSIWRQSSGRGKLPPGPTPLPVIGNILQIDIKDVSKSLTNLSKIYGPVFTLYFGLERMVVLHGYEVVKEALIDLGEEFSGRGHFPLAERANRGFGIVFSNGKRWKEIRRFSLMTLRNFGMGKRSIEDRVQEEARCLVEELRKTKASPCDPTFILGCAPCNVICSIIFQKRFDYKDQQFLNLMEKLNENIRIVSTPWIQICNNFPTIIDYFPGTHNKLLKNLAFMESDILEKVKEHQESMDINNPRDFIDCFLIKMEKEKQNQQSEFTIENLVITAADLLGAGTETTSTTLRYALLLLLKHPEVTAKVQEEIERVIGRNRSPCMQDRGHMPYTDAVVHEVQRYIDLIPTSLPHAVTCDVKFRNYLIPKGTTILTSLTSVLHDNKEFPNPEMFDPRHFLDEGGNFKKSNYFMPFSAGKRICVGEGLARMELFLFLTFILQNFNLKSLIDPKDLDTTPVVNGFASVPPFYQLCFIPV
CYP 2D6, sequence (P10635 whole entry): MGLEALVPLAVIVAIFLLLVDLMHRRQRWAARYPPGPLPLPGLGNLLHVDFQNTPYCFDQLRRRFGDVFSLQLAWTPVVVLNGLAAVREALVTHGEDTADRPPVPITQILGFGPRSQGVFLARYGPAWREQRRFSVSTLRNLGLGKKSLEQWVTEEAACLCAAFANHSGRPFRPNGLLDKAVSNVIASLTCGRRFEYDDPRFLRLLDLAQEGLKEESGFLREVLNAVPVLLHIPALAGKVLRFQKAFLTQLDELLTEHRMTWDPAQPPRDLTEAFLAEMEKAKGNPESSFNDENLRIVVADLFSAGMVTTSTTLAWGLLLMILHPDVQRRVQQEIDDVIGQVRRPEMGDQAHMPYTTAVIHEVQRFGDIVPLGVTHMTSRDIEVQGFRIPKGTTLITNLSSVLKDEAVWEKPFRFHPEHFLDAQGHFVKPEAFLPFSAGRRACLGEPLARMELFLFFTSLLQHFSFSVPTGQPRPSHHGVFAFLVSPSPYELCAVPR
CYP 1A2, sequence (P05177 whole entry): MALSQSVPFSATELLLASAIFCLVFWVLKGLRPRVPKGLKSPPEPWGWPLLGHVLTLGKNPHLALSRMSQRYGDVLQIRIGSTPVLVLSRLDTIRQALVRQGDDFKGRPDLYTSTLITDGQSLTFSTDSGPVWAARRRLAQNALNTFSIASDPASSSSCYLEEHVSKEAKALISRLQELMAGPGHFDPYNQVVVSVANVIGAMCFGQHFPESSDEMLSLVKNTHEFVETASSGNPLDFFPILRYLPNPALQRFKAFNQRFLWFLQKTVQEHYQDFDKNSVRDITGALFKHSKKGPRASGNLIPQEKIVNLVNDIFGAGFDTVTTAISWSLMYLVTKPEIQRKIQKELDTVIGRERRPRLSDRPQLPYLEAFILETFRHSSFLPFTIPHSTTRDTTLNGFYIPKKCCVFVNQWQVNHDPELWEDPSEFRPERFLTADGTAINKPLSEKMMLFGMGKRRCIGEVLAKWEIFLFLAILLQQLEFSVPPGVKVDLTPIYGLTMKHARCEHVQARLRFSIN

For `CC1(C)NC(=O)N(c2ccc(F)c(C(C)(F)F)c2)C1=O` [Compound IC, 3-(3-(1,1-difluoroethyl)-4-fluorophenyl)-5,5-dimethylimidazolidine-2,4-dione], the “LogD7.4 (shake flask)” value [1] was 2.1, the logD [1] was 2.1 and the microsomal CLint [2] was 7 µL/min/mg. It also gave an IC50 [3] of over 100 µM, an IC50 [4] of over 20 µM and an IC50 [5] of over 20 µM. The CLint [6] was under 1.9 μL/min/10^6, the CLint [7] was under 1 μL/min/10^6 and the IC50 [8] was over 20 µM. The chromatographic logD [9] was 2.6, the CLint [10] was under 1.8 μL/min/10^6 and the “Plasma Concentration” value ([11]; IV 1 mg/kg, 0.17 h, individual rats) was 1292 ng/mL and 1300 ng/mL and 908 ng/mL. The “Plasma Concentration” value ([11]; IV 1 mg/kg, 0.17 h, mean) was 1167 ng/mL, the “Plasma Concentration” value ([11]; IV 1 mg/kg, 1.17 h, individual rats) was 728 ng/mL and 549 ng/mL and 529 ng/mL and the “Plasma Concentration” value ([11]; IV 1 mg/kg, 1.17 h, mean) was 602 ng/mL. The “Plasma Concentration” value ([11]; IV 1 mg/kg, 2.17 h, individual rats) was 701 ng/mL and 669 ng/mL and 469 ng/mL, the “Plasma Concentration” value ([11]; IV 1 mg/kg, 2.17 h, mean) was 613 ng/mL and the “Plasma Concentration” value ([11]; IV 1 mg/kg, 4.17 h, individual rats) was 640 ng/mL and 662 ng/mL and 420 ng/mL. For the same molecule, the “Plasma Concentration” value ([11]; IV 1 mg/kg, 4.17 h, mean) was 574 ng/mL, the “Plasma Concentration” value ([11]; IV 1 mg/kg, 7.17 h, individual rats) was 569 ng/mL and 641 ng/mL and 493 ng/mL and the “Plasma Concentration” value ([11]; IV 1 mg/kg, 7.17 h, mean) was 568 ng/mL. For the same molecule, the “Plasma Concentration” value ([11]; IV 1 mg/kg, 12.17 h, individual rats) was 545 ng/mL and 473 ng/mL and 480 ng/mL, the “Plasma Concentration” value ([11]; IV 1 mg/kg, 12.17 h, mean) was 499 ng/mL and the “Plasma Concentration” value ([11]; IV 1 mg/kg, 24.17 h, individual rats) was 340 ng/mL and 403 ng/mL and 268 ng/mL. For the same molecule, the “Plasma Concentration” value ([11]; IV 1 mg/kg, 24.17 h, mean) was 337 ng/mL, the “Plasma Concentration” value ([11]; IV 1 mg/kg, 36.17 h, individual rats) was 215 ng/mL and 266 ng/mL and 216 ng/mL and the “Plasma Concentration” value ([11]; IV 1 mg/kg, 36.17 h, mean) was 232 ng/mL. For the same molecule, the “Plasma Concentration” value ([11]; IV 1 mg/kg, 48.17 h, individual rats) was 125 ng/mL and 170 ng/mL and 97 ng/mL, the “Plasma Concentration” value ([11]; IV 1 mg/kg, 48.17 h, mean) was 130 ng/mL and the “Plasma Concentration” value ([11]; IV 1 mg/kg, 72.17 h, individual rats) was 46.8 ng/mL and 62.2 ng/mL and 33.5 ng/mL. The “Plasma Concentration” value ([11]; IV 1 mg/kg, 72.17 h, mean) was 47.5 ng/mL, the “Plasma Concentration” value ([11]; IV 1 mg/kg, 96.17 h, individual rats) was 11.5 ng/mL and 28.1 ng/mL and 13.6 ng/mL and the “Plasma Concentration” value ([11]; IV 1 mg/kg, 96.17 h, mean) was 17.7 ng/mL. For the same molecule, the “Plasma Concentration” value ([11]; IV 1 mg/kg, 120.17 h, individual rats) was 3.1 ng/mL and 7.0 ng/mL and 2.6 ng/mL, the “Plasma Concentration” value ([11]; IV 1 mg/kg, 120.17 h, mean) was 4.2 ng/mL and the “Plasma Concentration” value ([11]; IV 1 mg/kg, 144.17 h, individual rats) was 3.0 ng/mL. For the same molecule, the “Plasma Concentration” value ([11]; IV 1 mg/kg, 144.17 h, mean) was 3.0 ng/mL, the clearance ([11]; male, Sprague Dawley, rat, in vivo, iv, 1 mg/kg, rats, IV 1 mg/kg, individual rats, read-out: Blood CL) was 0.664 mL/min/kg and the Vd ([11]; male, Sprague Dawley, rat, in vivo, iv, 1 mg/kg, rats, IV 1 mg/kg, individual rats, read-out: Blood Vss) was 0.948 L/kg. It also gave an AUC ([11]; male, Sprague Dawley, rat, in vivo, iv, 1 mg/kg, rats, IV 1 mg/kg, individual rats, read-out: Plasma AUCIV) of 20900 ng·h/mL, a clearance ([11]; male, Sprague Dawley, rat, in vivo, iv, 1 mg/kg, rats, IV 1 mg/kg, individual rats, read-out: Plasma CL) of 0.797 mL/min/kg and a Vd ([11]; male, Sprague Dawley, rat, in vivo, iv, 1 mg/kg, rats, IV 1 mg/kg, individual rats, read-out: Plasma Vss) of 1.14 L/kg. It also gave an AUC ([11]; male, Sprague Dawley, rat, in vivo, iv, 1 mg/kg, rats, IV 1 mg/kg, mean (n = 3), read-out: Plasma AUCIV) of 20600 ng·h/mL, a clearance ([11]; male, Sprague Dawley, rat, in vivo, iv, 1 mg/kg, rats, IV 1 mg/kg, mean (n = 3), read-out: Plasma CL) of 0.825 mL/min/kg and a Vd ([11]; male, Sprague Dawley, rat, in vivo, iv, 1 mg/kg, rats, IV 1 mg/kg, mean (n = 3), read-out: Plasma Vss) of 1.25 L/kg. It also gave a clearance ([11]; male, Sprague Dawley, rat, in vivo, iv, 1 mg/kg, rats, IV 1 mg/kg, mean, read-out: Blood CL) of 0.687 mL/min/kg, a Vd ([11]; male, Sprague Dawley, rat, in vivo, iv, 1 mg/kg, rats, IV 1 mg/kg, mean, read-out: Blood Vss) of 1.04 L/kg and an AUC ([11]; male, Sprague Dawley, rat, in vivo, po, 1 mg/kg, rats, PO 1 mg/kg, individual rats, read-out: Plasma AUCoral) of 23300 ng·h/mL. It also gave a Cmax ([11]; male, Sprague Dawley, rat, in vivo, po, 1 mg/kg, rats, PO 1 mg/kg, individual rats, read-out: Plasma Cmax) of 614 ng/mL and an AUC ([11]; male, Sprague Dawley, rat, in vivo, po, 1 mg/kg, rats, PO 1 mg/kg, mean (n = 3), read-out: Plasma AUCoral) of 20400 ng·h/mL.
